{"source": "patent US8247211B2", "about": "“Glycopeptide antibiotics” (American Cyanamid Company, priority 2001, dated 2012)", "key": {"Escherichia coli": {"system": "Escherichia coli", "assay": "In vitro antibacterial evaluation: minimum inhibitory concentration (MIC), broth dilution method", "assay_type": "cell-based", "conditions": "18 hours at 35° C.", "in_short": "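Inoculum: 5×10^5 CFU/mL. Range: 64-0.06 μg/mL. Medium: Muller-Hinton II […]; NCCLS M7-A2 broth dilution. Endpoint: lowest concentration inhibiting growth. Strains include methicillin-, penicillin- and/or vancomycin-resistant clinical isolates.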"}, "Streptococcus sp.": {"system": "Streptococcus sp.", "assay": "In vitro antibacterial evaluation: minimum inhibitory concentration (MIC), broth dilution method", "assay_type": "cell-based", "conditions": "18 hours at 35° C.", "in_short": "(§1)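 NCCLS M7-A2 broth dilution; Muller-Hinton II […]; 5×10^5 CFU/mL; 64-0.06 μg/mL. MIC = lowest concentration with no growth.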"}, "Enterococcus sp.": {"system": "Enterococcus sp.", "assay": "In vitro antibacterial evaluation: minimum inhibitory concentration (MIC), broth dilution method", "assay_type": "cell-based", "conditions": "18 hours at 35° C.", "in_short": "as §1"}, "Staphylococcus sp.": {"system": "Staphylococcus sp.", "assay": "In vitro antibacterial evaluation: minimum inhibitory concentration (MIC), broth dilution method", "assay_type": "cell-based", "conditions": "18 hours at 35° C.", "in_short": "as §1"}, "[1]": {"system": "Staphylococcus aureus-SMITH (GC 4543)", "assay": "Acute lethal infection in mice (ED50)", "assay_type": "in vivo", "conditions": "female CD-1 mice, intraperitoneal challenge, intravenous dose 30 min. after infection, 7 day survival ratios", "in_short": "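IP bacterial challenge, female CD-1 mice; inoculum lethal to untreated controls in 24-48 hr. IV dosing in saline or 5% dextrose 30 min post-infection, 5 mice/dose. ED50 from 7-day survival, 3 tests pooled.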"}, "[2]": {"assay": "Anatomic pathology (heart and kidney histopathology) in mice", "assay_type": "in vivo, CD-1 mice", "conditions": "20 mg/kg intravenously daily for 9 days, microscopic histopathology on day 10", "in_short": "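Histopathology on H&E-stained, paraffin-embedded sections, subjectively scored (slight, mild, moderate, marked, severe) relative to untreated controls. Dosing: glycopeptide antibiotics 20 mg/kg intravenously once daily ×9 days in 20-day-old CD-1 mice, n=5 per group including vehicle.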"}, "[3]": {"conditions": "broth dilution, inoculum 5×10^5 CFU/mL"}}, "data": [{"molecule": "COc1ccc2cc(COC3C(CO)OC(OC4C(CO)OC(Oc5ccc(CC6NC(=O)C(C(C)c7ccccc7)NC(=O)CNC(=O)C(CO)NC(=O)C(CC7CNC(=N)N7C7OC(CO)C(O)C(O)C7O)NC(=O)C(CC7CNC(=N)N7)NC6=O)cc5)C(O)C4O)C(O)C3O)ccc2c1", "note": "(stereo not drawn) [Example 245a, Cyclo[3-(2-iminoimidazolidin-4-yl)alanyl-3-(3-hexopyranosyl-2-iminoimidazolidin-4-yl)-alanylserylglycyl-β-methylphenylalanyl-O-[4-O-[4-O-[(6-methoxy-2-naphthyl)methyl]-hexopyranosyl]hexopyranosyl]tyrosyl]]", "values": [{"measurement": "MIC Escherichia coli (ATCC 25922)", "setting": "Escherichia coli; Escherichia coli (ATCC 25922)", "value": 32, "unit": "µg/mL"}, {"measurement": "MIC Escherichia coli (GC 4559)", "setting": "Escherichia coli; Escherichia coli (GC 4559)", "value": 32, "unit": "µg/mL"}, {"measurement": "MIC Escherichia coli (GC 4560)", "setting": "Escherichia coli; Escherichia coli (GC 4560)", "value": 2, "unit": "µg/mL"}, {"measurement": "MIC Streptococcus agalactiae (GC 4564)", "setting": "Streptococcus sp.; Streptococcus agalactiae (GC 4564)", "value": 1, "unit": "µg/mL"}, {"measurement": "MIC Streptococcus pneumoniae (ATCC 6301)", "setting": "Streptococcus sp.; Streptococcus pneumoniae (ATCC 6301)", "value": 0.5, "unit": "µg/mL"}, {"measurement": "MIC Streptococcus pneumoniae (GC 1894)", "setting": "Streptococcus sp.; Streptococcus pneumoniae (GC 1894)", "value": "<0.12", "unit": "µg/mL"}, {"measurement": "MIC Streptococcus pneumoniae (GC 4565)", "setting": "Streptococcus sp.; Streptococcus pneumoniae (GC 4565)", "value": 1, "unit": "µg/mL"}, {"measurement": "MIC Streptococcus pyogenes (GC 4563)", "setting": "Streptococcus sp.; Streptococcus pyogenes (GC 4563)", "value": 1, "unit": "µg/mL"}, {"measurement": "MIC Streptococcus agalactiae (GC 4564)", "setting": "Streptococcus sp.; [3]", "value": 1, "unit": "µg/mL"}, {"measurement": "MIC Streptococcus pneumoniae (ATCC 6301)", "setting": "Streptococcus sp.; [3]", "value": 0.5, "unit": "µg/mL"}, {"measurement": "MIC Streptococcus pneumoniae (GC 1894)", "setting": "Streptococcus sp.; [3]", "value": "<0.12", "unit": "µg/mL"}, {"measurement": "MIC Streptococcus pneumoniae (GC 4565)", "setting": "Streptococcus sp.; [3]", "value": 1, "unit": "µg/mL"}, {"measurement": "MIC Streptococcus pyogenes (GC 4563)", "setting": "Streptococcus sp.; [3]", "value": 1, "unit": "µg/mL"}, {"measurement": "MIC Enterococcus avium (GC 4558)", "setting": "Enterococcus sp.; Enterococcus avium (GC 4558)", "value": 4, "unit": "µg/mL"}, {"measurement": "MIC Enterococcus faecalis (ATCC 29212)", "setting": "Enterococcus sp.; Enterococcus faecalis (ATCC 29212)", "value": 8, "unit": "µg/mL"}, {"measurement": "MIC Enterococcus faecalis (GC 2242)", "setting": "Enterococcus sp.; Enterococcus faecalis (GC 2242)", "value": 4, "unit": "µg/mL"}, {"measurement": "MIC Enterococcus faecalis (GC 2691)", "setting": "Enterococcus sp.; Enterococcus faecalis (GC 2691)", "value": 8, "unit": "µg/mL"}, {"measurement": "MIC Enterococcus faecalis (GC 3059)", "setting": "Enterococcus sp.; Enterococcus faecalis (GC 3059)", "value": 4, "unit": "µg/mL"}, {"measurement": "MIC Enterococcus faecalis (GC 4552)", "setting": "Enterococcus sp.; Enterococcus faecalis (GC 4552)", "value": 8, "unit": "µg/mL"}, {"measurement": "MIC Enterococcus faecalis (GC 4553)", "setting": "Enterococcus sp.; Enterococcus faecalis (GC 4553)", "value": 4, "unit": "µg/mL"}, {"measurement": "MIC Enterococcus faecalis (GC 4554)", "setting": "Enterococcus sp.; Enterococcus faecalis (GC 4554)", "value": 8, "unit": "µg/mL"}, {"measurement": "MIC Enterococcus faecalis (GC 6189)", "setting": "Enterococcus sp.; Enterococcus faecalis (GC 6189)", "value": 8, "unit": "µg/mL"}, {"measurement": "MIC Enterococcus faecium (GC 2243)", "setting": "Enterococcus sp.; Enterococcus faecium (GC 2243)", "value": 4, "unit": "µg/mL"}, {"measurement": "MIC Enterococcus faecium (GC 4556)", "setting": "Enterococcus sp.; Enterococcus faecium (GC 4556)", "value": 4, "unit": "µg/mL"}, {"measurement": "MIC Enterococcus faecium (GC 4557)", "setting": "Enterococcus sp.; Enterococcus faecium (GC 4557)", "value": 2, "unit": "µg/mL"}, {"measurement": "MIC Enterococcus faecalis (GC 2242)", "setting": "Enterococcus sp.; [3]", "value": 4, "unit": "µg/mL"}, {"measurement": "MIC Enterococcus faecalis (GC 2691)", "setting": "Enterococcus sp.; [3]", "value": 8, "unit": "µg/mL"}, {"measurement": "MIC Enterococcus faecalis (GC 3059)", "setting": "Enterococcus sp.; [3]", "value": 4, "unit": "µg/mL"}, {"measurement": "MIC Coagulase Negative Staphylococcus (GC 4547)", "setting": "Staphylococcus sp.; Coagulase Negative Staphylococcus (GC 4547)", "value": 2, "unit": "µg/mL"}, {"measurement": "MIC Coagulase Negative Staphylococcus (GC 4548)", "setting": "Staphylococcus sp.; Coagulase Negative Staphylococcus (GC 4548)", "value": 1, "unit": "µg/mL"}, {"measurement": "MIC Coagulase Negative Staphylococcus (GC 4549)", "setting": "Staphylococcus sp.; Coagulase Negative Staphylococcus (GC 4549)", "value": 0.5, "unit": "µg/mL"}, {"measurement": "MIC Coagulase Negative Staphylococcus (GC 4551)", "setting": "Staphylococcus sp.; Coagulase Negative Staphylococcus (GC 4551)", "value": 2, "unit": "µg/mL"}, {"measurement": "MIC Coagulase Negative Staphylococcus (GC 6257)", "setting": "Staphylococcus sp.; Coagulase Negative Staphylococcus (GC 6257)", "value": 1, "unit": "µg/mL"}, {"measurement": "MIC Staphylococcus aureus (ATCC 29213)", "setting": "Staphylococcus sp.; Staphylococcus aureus (ATCC 29213)", "value": 2, "unit": "µg/mL"}, {"measurement": "MIC Staphylococcus aureus (GC 1131)", "setting": "Staphylococcus sp.; Staphylococcus aureus (GC 1131)", "value": 4, "unit": "µg/mL"}, {"measurement": "MIC Staphylococcus aureus (GC 3051)", "setting": "Staphylococcus sp.; Staphylococcus aureus (GC 3051)", "value": 2, "unit": "µg/mL"}, {"measurement": "MIC Staphylococcus aureus (GC 3053)", "setting": "Staphylococcus sp.; Staphylococcus aureus (GC 3053)", "value": 2, "unit": "µg/mL"}, {"measurement": "MIC Staphylococcus aureus (GC 4541)", "setting": "Staphylococcus sp.; Staphylococcus aureus (GC 4541)", "value": 2, "unit": "µg/mL"}, {"measurement": "MIC Staphylococcus aureus (GC 4542)", "setting": "Staphylococcus sp.; Staphylococcus aureus (GC 4542)", "value": 2, "unit": "µg/mL"}, {"measurement": "MIC Staphylococcus aureus (GC 4544)", "setting": "Staphylococcus sp.; Staphylococcus aureus (GC 4544)", "value": 2, "unit": "µg/mL"}, {"measurement": "MIC Staphylococcus aureus (GC 4545)", "setting": "Staphylococcus sp.; Staphylococcus aureus (GC 4545)", "value": 2, "unit": "µg/mL"}, {"measurement": "MIC Staphylococcus aureus-SMITH (GC 4543)", "setting": "Staphylococcus sp.; Staphylococcus aureus-SMITH (GC 4543)", "value": 2, "unit": "µg/mL"}, {"measurement": "MIC Staphylococcus haemolyticus (GC 4546)", "setting": "Staphylococcus sp.; Staphylococcus haemolyticus (GC 4546)", "value": 1, "unit": "µg/mL"}, {"measurement": "median effective dose (ED50), Staphylococcus aureus-SMITH (GC 4543)", "setting": "[1]", "value": 1, "unit": "mg/kg"}, {"measurement": "Anatomical Pathology (Day 10), Heart", "setting": "[2]", "value": "+"}, {"measurement": "Anatomical Pathology (Day 10), Kidney", "setting": "[2]", "value": "+++"}]}]}
